From patent US3956492A, “Pharmaceutical compositions containing a 3-(amino-methylene)-5-phenyl-1,4-benzodiazepin-2-one and method of use” (Boehringer Ingelheim GmbH, priority 1972, dated 1976)
Read-outs that look alike come from different tables or passages of the source.

What was measured:
Assay type in all cases: in vivo
[1] = tested on: mice; experiment: Effect on spontaneous motility (sedative activity); conditions: Mus musculus, po, motility decreased by 50% vs control animals
Description: The sedative activity was further determined on mice in terms of the decreasing effect upon the spontaneous motility. The motility of 8 mice per dose of test compound was compared to the motility of 8 control animals; each group was placed into separate motility-measuring cages (diameter : 25 cm), with 10 photoelectric cells in the floor and a light source above the cage. After peroral administration of the test compound the dose was graphically determined which decreased the motility by 50%, compared to the control animals, at various time intervals after administration.

[2] = tested on: female NMRI-mice; experiment: Muscle-relaxing and sedative activity by the method of Young and Lewis (holding ability in slowly rotating inclined wire-mesh cylinders); conditions: Mus musculus, po, 50% of animals fall out of cylinders
Protocol: The muscle-relaxing and sedative activities were tested by the method of Young and Lewis [Science 105, 368 (1947)]on female NMRI-mice of our own breed with a body weight between 20 and 26 gm by means of slowly turning wire-mesh cylinders, inclined at 30° from the vertical (length : 43 cm; diameter : 22 cm; mesh-size of the wire netting : 0.6 cm). After peroral administration of the test compound in the form of a 1% suspension in tylose to groups of 10 mice/dose their holding ability in the slowly rotating cylinders was tested (2 rotations/minute) against a control group. The median effective dose (ED50) was graphically determined which caused 50% of the animals to fall out of the cylinders at various time intervals after administration.

[3] = tested on: male NMRI-mice; experiment: Anticonvulsive activity, protective effect against the maximum electro-shock-spasm; conditions: Mus musculus, po, p.o., 50% protected against tonic extensor component
Protocol: The anticonvulsive activity was tested in terms of the protective effect against the maximum electro-shock-spasm in male NMRI-mice of our own breed with a body weight between 20 and 26 gm analogous to Swinyard, Brown and Goodman [J. Pharmacol. exp. Therap. 106, 319 (1952)]. The animals were exposed to an alternating current of 50 cycles and 50 milliamperes (duration of stimulation 0.2 seconds), where the occurrence of the tonic extensor spasm was valued as positive. After peroral administration of the test compound in the form of a 1% suspension in tylose, the dose (ED50) was graphically determined which protected 50% of the animals against the tonic extensor component of the back extremities after various time intervals.

[4] = tested on: adult laboratory mice; experiment: Standard acute toxicity tests; conditions: group of 10 adult laboratory mice
Protocol: It should be added that the compounds of the formula I are virtually non-toxic. For instance, by standard acute toxicity tests were determined that even massive doses of 6400 mgm/kg p.o. of compound A or 3200 mgm/kg p.o. of compounds B or C produced no deaths in a group of 10 adult laboratory mice within 14 days.

[5] = after 90-95 min., read-out: ED50 after 90-95 min.
[6] = after 150-155 min., read-out: ED50 after 150-155 min.
[7] = after 30-60 min., read-out: ED50 after 30-60 min.
[8] = after 90-120 min., read-out: ED50 after 90-120 min.
[9] = after 210-240 min., read-out: ED50 after 210-240 min.
[10] = after 270-300 min., read-out: ED50 after 270-300 min.
[11] = 0.5 h, after 30 min., read-out: ED50 after 30 min.
[12] = 2.5 h, after 150 min., read-out: ED50 after 150 min.
[13] = 5 h, after 300 min., read-out: ED50 after 300 min.

Row | SMILES | ED50 [1, 5] [mg/kg] | ED50 [1, 6] [mg/kg] | ED50 [2, 7] [mg/kg] | ED50 [2, 8] [mg/kg] | ED50 [2, 9] [mg/kg] | ED50 [2, 10] [mg/kg] | ED50 [3, 11] [mg/kg] | ED50 [3, 12] [mg/kg] | ED50 [3, 13] [mg/kg] | deaths within 14 days ([4]; 3200 mgm/kg p.o.) | deaths within 14 days ([4]; 6400 mgm/kg p.o.)
1 | CCNC=C1N=C(c2ccccc2Cl)c2cc(Br)ccc2NC1=O [G, 3-(ethylamino-methylene)-7-bromo-5-(2'-chloro-phenyl)-1,3-dihydro-2H-1,4-benzodiazepin-2-one] | 1.56 | 2.45 | 2.4 | 1.25 | 2.1 | 2.4 | 37 | 8.8 | 22 |  | 
2 | NC=C1N=C(c2ccccc2Cl)c2cc(Br)ccc2NC1=O [F, 3-(amino-methylene)-7-bromo-5-(2'-chloro-phenyl)-1,3-dihydro-2H-1,4-benzodiazepin-2-one] | 8.15 | 3.76 | 0.5 | 0.7 | 0.7 | 1.9 | 70 | 14.5 | 16 |  | 
3 | CN1C(=O)C(=CN2CCOCC2)N=C(c2ccccc2Cl)c2cc(Br)ccc21 [D, 7-bromo-5-(2'-chloro-phenyl)-1,3-dihydro-1-methyl-3-(morpholino-methylene)-2H-1,4-benzodiazepin-2-one] | 4.4 | 5.2 | 33 | 26 | 16 | 13 | 200 | 31 | 34 |  | 
4 | NC=C1N=C(c2ccccc2Cl)c2cc(Cl)ccc2NC1=O [B, 3-(amino-methylene)-7-chloro-5-(2'-chloro-phenyl)-1,3-dihydro-2H-1,4-benzodiazepin-2-one] |  |  | 13 | 3 | 10 | 11 | 85 | 28 | 43 | no deaths | 
5 | CN1C(=O)C(=CN)N=C(c2ccccc2Cl)c2cc(Br)ccc21 [Compound E, 3-(amino-methylene)-7-bromo-5-(2'-chloro-phenyl)-1,3-dihydro-1-methyl-2H-1,4-benzodiazepin-2-one] |  |  | 7 | 7 | 5 | 6 | 18 | 17 | 26 |  | 
6 | CN1C(=O)C(=CN2CCOCC2)N=C(c2ccccc2Cl)c2cc(Cl)ccc21 [A, 7-chloro-5-(2'-chloro-phenyl)-1,3-dihydro-1-methyl-3-(morpholino-methylene)-2H-1,4-benzodiazepin-2-one] |  |  | 14 | 5 | 14 | 3 | 100 | 18 | 13 |  | no deaths
7 | CCNC=C1N=C(c2ccccc2Cl)c2cc(Cl)ccc2N(C)C1=O [C, 3-(ethylamino-methylene)-7-chloro-5-(2'-chloro-phenyl)-1,3-dihydro-1-methyl-2H-1,4-benzodiazepin-2-one] |  |  | 2 | 3 | 11 | 3 | 200 | 28 | 36 | no deaths | 
8 | CN1C(=O)C(=CN)N=C(c2ccccc2Cl)c2cc(I)ccc21 [H, 3-(amino-methylene)-5-(2'-chloro-phenyl)-1,3-dihydro-7-iodo-1-methyl-2H-1,4-benzodiazepin-2-one] |  |  | 2.6 | 1.5 | 2.7 | 1.6 | 38 | 30 | 16 |  | 
